For the data set, the target named is MALAT1. Particulars: ASO, A431, 0.005 µM.

Values joined by “and” are separate entries in the source; they are usually repeats but may differ in a detail not shown here. Identical values can stand only once. After the bases stand the sugars from the 5' end (letter, count) and the backbone: PS all phosphorothioate, else s phosphorothioate and o phosphodiester by linkage. Methylation of C is not given here. k = constrained ethyl (cEt); d = 2'-deoxy (DNA)

Turning to AAGTTGGTAATTACTC (sugars k3 d10 k3, PS), the target mRNA inhibition is 22%.

As for TTCAACTGGGAATACT (sugars k3 d10 k3, PS), the target mRNA inhibition turned out to be 17%.

For AGAGCATTGGAGATCA (sugars k3 d10 k3, PS), the target mRNA inhibition stood at 20%.

TTCCTAGCTTCACCAC (sugars k3 d10 k3, PS): the target mRNA inhibition came to 36%.

Turning to TTGAAACCGATTATGG (sugars k3 d10 k3, PS), the target mRNA inhibition came out at 42%.

In the case of AACAATCACTACTCCA (sugars k3 d10 k3, PS), the target mRNA inhibition came out at 26%.

Consider TACTATCCCATCACTG (sugars k3 d10 k3, PS), for which the target mRNA inhibition turned out to be 42%.

On to TCATGGATTTCAAGGT (sugars k3 d10 k3, PS), for which the target mRNA inhibition was 51%.

For TAATCTCCCACCTGTC (sugars k3 d10 k3, PS), the target mRNA inhibition turned out to be 7%.

Consider CAAACTACACATGCAG (sugars k3 d10 k3, PS), for which the target mRNA inhibition is 6%.

GTACTATAGCATCTGT (sugars k3 d10 k3, PS): the target mRNA inhibition worked out at 45%.

Take TTGAGGCAAGTCCTCA (sugars k3 d10 k3, PS): the target mRNA inhibition worked out at 3%.

For CCCAACTGCTTGCAGT (sugars k3 d10 k3, PS), the target mRNA inhibition came to 9%.

Consider AGAGAACCACACACTA (sugars k3 d10 k3, PS), for which the target mRNA inhibition came to 28%.

For TCAAAATCCTGAATGG (sugars k3 d10 k3, PS), the target mRNA inhibition stood at 38%.

For the sequence ATTCCTTATTTAGAGG (sugars k3 d10 k3, PS), the target mRNA inhibition is -11%.

For the sequence GCTGAACTATCACAAT (sugars k3 d10 k3, PS), the target mRNA inhibition was 27%.

As to CTGGTTAGGTATGAGC (sugars k3 d10 k3, PS), the target mRNA inhibition was found to be 3%.

Take CCACACACTACCATAT (sugars k3 d10 k3, PS): the target mRNA inhibition worked out at 17%.

Consider AACTCCCCCATTATAT (sugars k3 d10 k3, PS), for which the target mRNA inhibition was -1%.

Take TAGTTCTTCGGTTAAA (sugars k3 d10 k3, PS): the target mRNA inhibition is 6%.

Take CACAGGAACAAGTCCT (sugars k3 d10 k3, PS): the target mRNA inhibition worked out at 16%.

Turning to TCAAGGATGTATATAG (sugars k3 d10 k3, PS), the target mRNA inhibition amounted to 6%.

As to ACCGCACAGCTCGGGC (sugars k3 d10 k3, PS), the target mRNA inhibition turned out to be 5%.

GCACTGGTACACCCAG (sugars k3 d10 k3, PS): the target mRNA inhibition was -9%.

Turning to GGCTCATATTTAACTT (sugars k3 d10 k3, PS), the target mRNA inhibition worked out at 20%.

For the sequence CAGTCCTTTTAGTAGC (sugars k3 d10 k3, PS), the target mRNA inhibition was determined as 57%.

On to GCTAAGATGCTAGCTT (sugars k3 d10 k3, PS), for which the target mRNA inhibition is 10%.

With ATTTACTTGCCAACAG (sugars k3 d10 k3, PS), the target mRNA inhibition turned out to be 47%.

Take ACTTCCCCTTCTAGCT (sugars k3 d10 k3, PS): the target mRNA inhibition is 36%.

With CTCCCCCAACTGCTTG (sugars k3 d10 k3, PS), the target mRNA inhibition stood at 22%.

TACTCCATGAAGAAGC (sugars k3 d10 k3, PS): the target mRNA inhibition was -26%.

As for GTGTTCGCAGACAAAG (sugars k3 d10 k3, PS), the target mRNA inhibition was found to be 10%.

With GTCAATAGTACTATAG (sugars k3 d10 k3, PS), the target mRNA inhibition was 58% and 42%.

Regarding GCTTTGTTGTCTCTCC (sugars k3 d10 k3, PS), the target mRNA inhibition is 93% and 97%.

In the case of AATGCATTCTAATAGC (sugars k3 d10 k3, PS), the target mRNA inhibition stood at 17%.

Consider AGGCTTTAAATGACGC (sugars k3 d10 k3, PS), for which the target mRNA inhibition is -11%.

As to GCATTGGAGATCAGCT (sugars k3 d10 k3, PS), the target mRNA inhibition stood at 11%.

Regarding TTAAATTACACCAGTC (sugars k3 d10 k3, PS), the target mRNA inhibition was 50% and 65%.

For ATTTATAGACGGAGAA (sugars k3 d10 k3, PS), the target mRNA inhibition amounted to 9%.

As for GCACTTATCCCTAACA (sugars k3 d10 k3, PS), the target mRNA inhibition was 58% and 40%.

On to GAAGAGCATTGGAGAT (sugars k3 d10 k3, PS), for which the target mRNA inhibition was found to be 49%.

As for AGGGTTATGCTTATTC (sugars k3 d10 k3, PS), the target mRNA inhibition was 63% and 60%.

Turning to ACAGCGGTACACTCCT (sugars k3 d10 k3, PS), the target mRNA inhibition stood at 42%.

As to CATAGTTCAACCCACC (sugars k3 d10 k3, PS), the target mRNA inhibition turned out to be 35%.

Regarding ACCTCCGTCATGTTTT (sugars k3 d10 k3, PS), the target mRNA inhibition worked out at 43%.

In the case of GAGGTATGACATATAA (sugars k3 d10 k3, PS), the target mRNA inhibition was 54% and 49% and 50%.

For the sequence AAATAAGCACTTATCC (sugars k3 d10 k3, PS), the target mRNA inhibition amounted to 18%.

ACCTTCCGCCGCCTCT (sugars k3 d10 k3, PS): the target mRNA inhibition was 33%.

CGAAGACACAGAGACC (sugars k3 d10 k3, PS): the target mRNA inhibition was 10%.

Consider GCTGTCTTCCTAGATT (sugars k3 d10 k3, PS), for which the target mRNA inhibition was found to be 36%.

In the case of TAGCTTGGCCAAGTCT (sugars k3 d10 k3, PS), the target mRNA inhibition is 19%.

Regarding TATTTCGGCTTCTTTT (sugars k3 d10 k3, PS), the target mRNA inhibition is 47% and 65%.

For the sequence GAACTAGTGGTTCCCA (sugars k3 d10 k3, PS), the target mRNA inhibition was determined as 46%.

As for TGCCCAAATTAATGCA (sugars k3 d10 k3, PS), the target mRNA inhibition came out at 29%.

Take TCTGACTTTGTATGTA (sugars k3 d10 k3, PS): the target mRNA inhibition was found to be 48%.

With TCATCCTACCACTCCC (sugars k3 d10 k3, PS), the target mRNA inhibition came to 34%.

Take CCCCCGGAACTTTTAA (sugars k3 d10 k3, PS): the target mRNA inhibition is -12%.

On to TATTGGTATTAATTCG (sugars k3 d10 k3, PS), for which the target mRNA inhibition amounted to 13%.

In the case of AGAGATACCTGTCTGA (sugars k3 d10 k3, PS), the target mRNA inhibition came out at 22%.

Take CCTAACATGCAATACT (sugars k3 d10 k3, PS): the target mRNA inhibition worked out at 12%.

For AAACTAAATCATTGGG (sugars k3 d10 k3, PS), the target mRNA inhibition stood at 43%.

Take ACAACATATTGCCGAC (sugars k3 d10 k3, PS): the target mRNA inhibition turned out to be 10%.

Regarding CTGAGGCAAACGAAAC (sugars k3 d10 k3, PS), the target mRNA inhibition was -6%.

As for ATAGTACTATAGCATC (sugars k3 d10 k3, PS), the target mRNA inhibition came to 30%.

As to CCTTTTCTAACATAGT (sugars k3 d10 k3, PS), the target mRNA inhibition was 23%.

In the case of TGTGATAGTTCAGGGC (sugars k3 d10 k3, PS), the target mRNA inhibition was -12%.

AGACAAGATTCATGAG (sugars k3 d10 k3, PS): the target mRNA inhibition was 50%.

Take CACTTTCCTTGCCCAA (sugars k3 d10 k3, PS): the target mRNA inhibition was 69% and 61%.

Consider ATTAAAGTGTGATAGT (sugars k3 d10 k3, PS), for which the target mRNA inhibition turned out to be 17%.

On to GGAATTCGATCACCTT (sugars k3 d10 k3, PS), for which the target mRNA inhibition worked out at 29%.

In the case of TGGAAGCTCCTTCTAT (sugars k3 d10 k3, PS), the target mRNA inhibition was -19%.

As to TTTTTGTGGTTATAGC (sugars k3 d10 k3, PS), the target mRNA inhibition is 75% and 88%.

As to CCGTAACAGGCCACTG (sugars k3 d10 k3, PS), the target mRNA inhibition stood at 30%.

As for TCACTGCAAGGTCTCA (sugars k3 d10 k3, PS), the target mRNA inhibition was found to be 48%.

For the sequence AACCAGGAGTGCCAAC (sugars k3 d10 k3, PS), the target mRNA inhibition is -23%.

Regarding TCTTCGGTTAAAAATA (sugars k3 d10 k3, PS), the target mRNA inhibition was found to be 19%.

For CCCAAGATTGCCCCAA (sugars k3 d10 k3, PS), the target mRNA inhibition was -7%.

TAATGGTTTTCTACAC (sugars k3 d10 k3, PS): the target mRNA inhibition is 40%.

Regarding CCCTTTACACCTCAGT (sugars k3 d10 k3, PS), the target mRNA inhibition was determined as 25%.

As for TGCGGTTTCCTCAAGC (sugars k3 d10 k3, PS), the target mRNA inhibition amounted to 26%.

In the case of ACTTCCGTTACGAAAG (sugars k3 d10 k3, PS), the target mRNA inhibition was 1%.

Turning to CTATAGCATCTGTGGA (sugars k3 d10 k3, PS), the target mRNA inhibition turned out to be 29%.

On to CCCTACTGAAGAGCAT (sugars k3 d10 k3, PS), for which the target mRNA inhibition came out at 13%.

Consider TTATCCCTAACATGCA (sugars k3 d10 k3, PS), for which the target mRNA inhibition worked out at 8%.

For GAGTCATTTGCCTTTA (sugars k3 d10 k3, PS), the target mRNA inhibition is 73% and 48%.

As to TGCATCGAGGTGAGGG (sugars k3 d10 k3, PS), the target mRNA inhibition is 21%.

Take TGCCTACCACTCTAAG (sugars k3 d10 k3, PS): the target mRNA inhibition was -10%.

As to ACTGATCACTTTAGAG (sugars k3 d10 k3, PS), the target mRNA inhibition was found to be 36%.

Turning to TGCCAATATTTGCCCC (sugars k3 d10 k3, PS), the target mRNA inhibition is 20%.

With CTTCAACATTTGGCCT (sugars k3 d10 k3, PS), the target mRNA inhibition was 18%.

For the sequence TCCCCCCCAAGATTGC (sugars k3 d10 k3, PS), the target mRNA inhibition was -3%.

Consider TCACGGATTTTTACCA (sugars k3 d10 k3, PS), for which the target mRNA inhibition was 28%.

As to AAAAGCTTGTTCACCT (sugars k3 d10 k3, PS), the target mRNA inhibition was determined as 21%.

As for CTTATCTGTTAACAGC (sugars k3 d10 k3, PS), the target mRNA inhibition came out at 43%.

Regarding GCACAGCTCGGGCGAG (sugars k3 d10 k3, PS), the target mRNA inhibition was -20%.

As for CTTTTAATCATACTCC (sugars k3 d10 k3, PS), the target mRNA inhibition worked out at 16%.

TCCTTCTATAGTCTGA (sugars k3 d10 k3, PS): the target mRNA inhibition turned out to be 14%.

As to TCTGCGGCCCCCCAGT (sugars k3 d10 k3, PS), the target mRNA inhibition came to 25%.

These data come from the OligoGym collection.
